Values of other authors in patent US20220087927A1, “ANTIMICROBIAL AGENT” (priority 2020, published 2022).

Assays:
Conditions in all cases: suspension 10^7-10^8 per ml
Staphylococcus aureus = tested on: Staphylococcus aureus
Pseudomonas aeruginosa = tested on: Pseudomonas aeruginosa
[1] = tested on: E. coli (Escherichia coli)
[2] = tested on: Candida (candida albicians)
[3] = tested on: Koji mold (asprogillus brasiliensis)

Structure (SMILES)	MIC (minimum growth prevention concentration) (Staphylococcus aureus) [%]	MIC (minimum growth prevention concentration) (Pseudomonas aeruginosa) [%]	MIC (minimum growth prevention concentration) [1] [%]	MIC (minimum growth prevention concentration) [2] [%]	MIC (minimum growth prevention concentration) [3] [%]
CCO [ethanol]	9	5	5	7	5
OCCCCO [butylene glycol]	16	8	10	14	18
